Experimental data from patent US20100173018A1, “Microbicidal Compositions Including Activated Nitrogenous Compound and 1,4-Bis(Bromoacetoxy)-2-Butene, and Methods Of Using The Same” (BUCKMAN LABORATORIES INTERNATIONAL, INC., priority 2009, published 2010).
“Also recorded” adds a separate entry of the source.

What was measured:
[1] = tested on: filamentous bacteria isolate from a paper mill slime deposit (Flectobacillus species); test: Synergy evaluation against filamentous bacteria (checkerboard, CFU on agar); type: cell-based
Experimental: Synergy evaluation against filamentous bacteria. The checkerboard method was used to determine the Fractional Inhibitory Index (FIC) as a predictor of synergy between Activated N-Compound and Busan 1210 (BBAB) against a pure isolate of filamentous bacteria cultured from a paper mill slime deposit. The isolate was identified by 16 S ribosomal RNA sequencing technique. Gene assembly and data analysis was performed using MicroSeq data analysis and identification software; the isolate was identified as a Flectobacillus species. Modified Basal Salts Buffer was inoculated with a suspension of the bacterial isolate to yield a final concentration of 1×10^5 cells per ml. Using a delay between additions, Busan 1210 (BBAB) was added 20 minutes prior to the addition of monochloramine (MCA). After a 3 hours exposure time, the treatments were sub-cultured onto Nutrient and Plate Count Agar (PCA) and incubated at 28° C. for 48 hours. The plates were examined for colony forming units (CFU) and compared to untreated control. [formula] Synergy is expressed as a Fractional inhibitory Concentration Index (FIC), calculated as follows: FIC=[A]/[a]+[B]/[b] where, [A] and [B]=MIC of the compounds A and B when in combination [a] and [b]=MIC of the compounds A and B when alone

[2] = tested on: white water (ww) sample with a sulfite content of 12.8 ppm; test: Synergism in the presence of sulfite: ATP measurement in white water, percent inhibition; type: cell-based; details: 10 min; BBAB 80 ppm active alone; ATP at 10 min; sulfite 12.8 ppm
Experimental: Synergism in the presence of sulfite. The effectiveness of the actives and the blend were evaluated in a white water (ww) sample with a sulfite content of 12.8 ppm. ATP measurements were performed in duplicate and percent inhibition calculated as a measure of antimicrobial efficacy. The raw data was converted to percent inhibition with use of the following formulation: % Inhibition=[(u−t)/u]×100 where: u=ATP value of untreated ww at time10 min t=ATP value of treated ww at time10 min.

[3] = tested on: Enterobacter aerogenes (ATCC 13048); test: Evaluation of bactericidal activity (MIC, Bactometer impedance) with checkerboard synergy evaluation; type: cell-based; details: value <1 denotes synergistic activity
Experimental: A. Evaluation of Bactericidal Activity. This test method provides a technique for testing compounds for their effectiveness to control bacterial growth. MIC values represent the Minimum Inhibitory Concentration, defined as the lowest level of compound required to produce a 90% kill of a given organism.
Cell suspension from an 18 to 24 hour bacterial culture of Staphylococcus aureus (ATCC 6538) or Bacillus subtilis (ATCC 6633) or Enterobacter aerogenes (ATCC 13048) to attain a desired cell concentration. Using a McFarland nephelometer barium sulfate standard or some other suitable method, adjust the concentration of the bacterial suspension so that a final concentration of between 1×10^4 and 1×10^5 cells per ml is achieved when 100 μl of the inoculum is added to 5 ml of basal salts substrate. […]
• Bacterial growth in the tubes is measured by monitoring impedance levels on the Bactometer. • Dispense 1 ml aliquots of Modified WILKINS Chalgren Broth (Bactometer Media) into Bactometer wells; add 25 μl of treatment from the incubated tubes. […]
Synergy was measured by checkerboards dilutions (Yan and Hancock, 2001), in which one compound is diluted along the rows of test tubes and the other is diluted along the columns. […] The result is expressed as the Fractional Inhibitory Concentration Index (FIC), calculated as follows: […]

[4] = cited from earlier work

Row | SMILES | FIC ([1]; FIC=[A]/[a]+[B]/[b]) | MIC of compound when alone ([a] / [b]) ([1]; alone, 3 hours exposure, sub-cultured 28° C. for 48 hours) | inhibition at 80 ppm [2] [%] | [A]/MICA + [B]/MICB (FIC index) [3] | solubility in isopropenol, n-butenol, glycerol, ethylene glycol, propylene glycol, and diethylene glycol ([4]; alcohols and glycols as listed) | solubility in dimethylformamide and ethylene glycol monomethylether ([4]; dimethylformamide, ethylene glycol monomethylether) | solubility in water ([4]; water)
1 | NCl [MCA, monochloramine] | 1.0 | 10.0(a) |  |  |  |  | 
2 | O=C(CBr)OC/C=C\COC(=O)CBr [BBAB, 1,4-bis(bromoacetoxy)-2-butene] |  |  | 22.8 | 1.0 | soluble | soluble | extremely low; also recorded: water insoluble
